Tests used:
[1] = system: THP-1; assay: Pro-apoptotic activity in human THP1 cells assessed as early apoptotic cells at 0.5 uM after 24 hrs by annexin V/propidium iodide staining-based flow cytometric method (reference value: 0.4 +/- 0.1%); format: functional
[2] = system: THP-1; assay: Pro-apoptotic activity in human THP1 cells assessed as early apoptotic cells at 0.75 uM after 24 hrs by annexin V/propidium iodide staining-based flow cytometric method (reference value: 0.4 +/- 0.1%); format: functional
[3] = system: ASPC1; assay: Pro-apoptotic activity in human AsPC1 cells assessed as necrotic cells at 100 uM after 24 hrs by annexin V/propidium iodide staining-based flow cytometric method (reference value: 2.1 +/- 0.4%); format: functional
[4] = Antioxidant activity assessed as DPPH free radical scavenging activity incubated for 30 mins in dark; format: functional
[5] = Cell cycle arrest in human THP1 cells assessed as decrease in cell levels at G0/G1 phase after 24 hrs by flow cytometric method; format: functional, cell-based; settings: THP-1
[6] = Cell cycle arrest in human THP1 cells assessed as accumulation at G2/M phase at 0.5 uM after 24 hrs by flow cytometric method (reference value: 32 +/- 1%); format: functional, cell-based; settings: THP-1
[7] = system: ASPC1; assay: Induction of pro-differentiation of human AsPC1 cells assessed as CD44 expression at 10 uM after 3 days by immunostaining-based micro-capillary flow cytometric method (reference value: 87 +/- 1%); format: functional
[8] = system: ASPC1; assay: Pro-apoptotic activity in human AsPC1 cells assessed as late apoptotic cells at 10 uM after 24 hrs by annexin V/propidium iodide staining-based flow cytometric method (reference value: 0.8 +/- 0.1%); format: functional
[9] = system: THP-1; assay: Pro-apoptotic activity in human THP1 cells assessed as late apoptotic cells at 0.75 uM after 24 hrs by annexin V/propidium iodide staining-based flow cytometric method (reference value: 0.4 +/- 0.1%); format: functional
[10] = Cell cycle arrest in human AsPC1 cells assessed as accumulation at G2/M phase at 1 uM after 24 hrs by flow cytometric method (reference value: 29 +/- 5%); format: functional, cell-based
[11] = system: THP-1; assay: Pro-apoptotic activity in human THP1 cells assessed as early apoptotic cells at 1 uM after 24 hrs by annexin V/propidium iodide staining-based flow cytometric method (reference value: 0.4 +/- 0.1%); format: functional
[12] = Cell cycle arrest in human THP1 cells assessed as accumulation at S phase at 0.5 uM after 24 hrs by flow cytometric method (reference value: 16 +/- 2%); format: functional, cell-based; settings: THP-1
[13] = system: THP-1; assay: Pro-apoptotic activity in human THP1 cells assessed as late apoptotic cells at 0.5 uM after 24 hrs by annexin V/propidium iodide staining-based flow cytometric method (reference value: 0.4 +/- 0.1%); format: functional
[14] = Cell cycle arrest in human THP1 cells assessed as accumulation at G0/G1 phase at 0.75 uM after 24 hrs by flow cytometric method (reference value: 51 +/- 6%); format: functional, cell-based; settings: THP-1
[15] = Cell cycle arrest in human AsPC1 cells assessed as accumulation at G2/M phase at 75 uM after 24 hrs by flow cytometric method (reference value: 29 +/- 5%); format: functional, cell-based
[16] = system: THP-1; assay: Pro-apoptotic activity in human THP1 cells assessed as necrotic cells at 10 uM after 24 hrs by annexin V/propidium iodide staining-based flow cytometric method relative to control; format: functional
[17] = system: THP-1; assay: Pro-apoptotic activity in human THP1 cells assessed as late apoptotic cells at 30 uM after 24 hrs by annexin V/propidium iodide staining-based flow cytometric method (reference value: 0.4 +/- 0.1%); format: functional
[18] = Cell cycle arrest in human AsPC1 cells assessed as accumulation at G2/M phase at 50 uM after 24 hrs by flow cytometric method (reference value: 29 +/- 5%); format: functional, cell-based
[19] = Cell cycle arrest in human AsPC1 cells assessed as accumulation at S phase at 50 uM after 24 hrs by flow cytometric method (reference value: 23 +/- 3%); format: functional, cell-based
[20] = Cell cycle arrest in human AsPC1 cells assessed as accumulation at S phase at 30 uM after 24 hrs by flow cytometric method (reference value: 23 +/- 3%); format: functional, cell-based
[21] = Cell cycle arrest in human THP1 cells assessed as accumulation at G2/M phase at 3 uM after 24 hrs by flow cytometric method (reference value: 32 +/- 1%); format: functional, cell-based; settings: THP-1
[22] = system: THP-1; assay: Pro-apoptotic activity in human THP1 cells assessed as early apoptotic cells at 30 uM after 24 hrs by annexin V/propidium iodide staining-based flow cytometric method (reference value: 0.4 +/- 0.1%); format: functional
[23] = Cell cycle arrest in human THP1 cells assessed as accumulation at S phase at 1 uM after 24 hrs by flow cytometric method (reference value: 16 +/- 2%); format: functional, cell-based; settings: THP-1
[24] = Cell cycle arrest in human AsPC1 cells assessed as accumulation at G2/M phase at 10 uM after 24 hrs by flow cytometric method (reference value: 29 +/- 5%); format: functional, cell-based
[25] = system: ASPC1; assay: Pro-apoptotic activity in human AsPC1 cells assessed as necrotic cells at 1 uM after 24 hrs by annexin V/propidium iodide staining-based flow cytometric method (reference value: 2.1 +/- 0.4%); format: functional
[26] = Cell cycle arrest in human AsPC1 cells assessed as accumulation at G0/G1 phase at 10 uM after 24 hrs by flow cytometric method (reference value: 48 +/- 7%); format: functional, cell-based
[27] = Cell cycle arrest in human AsPC1 cells assessed as accumulation at S phase at 100 uM after 24 hrs by flow cytometric method (reference value: 23 +/- 3%); format: functional, cell-based
[28] = system: THP-1; assay: Pro-apoptotic activity in human THP1 cells assessed as late apoptotic cells at 1 uM after 24 hrs by annexin V/propidium iodide staining-based flow cytometric method (reference value: 0.4 +/- 0.1%); format: functional
[29] = system: ASPC1; assay: Pro-apoptotic activity in human AsPC1 cells assessed as late apoptotic cells at 100 uM after 24 hrs by annexin V/propidium iodide staining-based flow cytometric method (reference value: 0.8 +/- 0.1%); format: functional
[30] = Cell cycle arrest in human THP1 cells assessed as accumulation at S phase at 10 uM after 24 hrs by flow cytometric method (reference value: 16 +/- 2%); format: functional, cell-based; settings: THP-1
[31] = system: THP-1; assay: Pro-apoptotic activity in human THP1 cells assessed as necrotic cells at 3 uM after 24 hrs by annexin V/propidium iodide staining-based flow cytometric method relative to control; format: functional
[32] = Cell cycle arrest in human THP1 cells assessed as accumulation at G2/M phase at 10 uM after 24 hrs by flow cytometric method (reference value: 32 +/- 1%); format: functional, cell-based; settings: THP-1
[33] = system: ASPC1; assay: Pro-apoptotic activity in human AsPC1 cells assessed as late apoptotic cells at 50 uM after 24 hrs by annexin V/propidium iodide staining-based flow cytometric method (reference value: 0.8 +/- 0.1%); format: functional
[34] = system: THP-1; assay: Pro-apoptotic activity in human THP1 cells assessed as necrotic cells at 0.5 uM after 24 hrs by annexin V/propidium iodide staining-based flow cytometric method relative to control; format: functional
[35] = system: THP-1; assay: Pro-apoptotic activity in human THP1 cells assessed as necrotic cells at 1 uM after 24 hrs by annexin V/propidium iodide staining-based flow cytometric method relative to control; format: functional
[36] = system: ASPC1; assay: Pro-apoptotic activity in human AsPC1 cells assessed as necrotic cells at 10 uM after 24 hrs by annexin V/propidium iodide staining-based flow cytometric method (reference value: 2.1 +/- 0.4%); format: functional

NC(=[Se])N/N=C/c1cccc2cccnc12
Activity [1]: 1.7% | Activity [2]: 1.1% | Activity [3]: 5.5% | IC50 [4]: 12.5 µM | Activity [5]: Dose-dependent effect | Activity [6]: 27% | Activity [7]: 77% | Activity [8]: 0.8% | Activity [9]: 2.4% | Activity [10]: 10.6% | Activity [11]: 1.5% | Activity [12]: 22% | Activity [13]: 2% | Activity [14]: 44% | Activity [15]: 14.4% | Activity [16]: 4% | Activity [17]: 46% | Activity [18]: 8.6% | Activity [19]: 26% | Activity [20]: 22.5% | Activity [21]: 30% | Activity [22]: 8% | Activity [23]: 26% | Activity [24]: 16.7% | Activity [25]: 1.8% | Activity [26]: 62% | Activity [27]: 18.8% | Activity [28]: 2% | Activity [29]: 26.5% | Activity [30]: 27% | Activity [31]: 0.4% | Activity [32]: 28% | Activity [33]: 0.3% | Activity [34]: 0.7% | Activity [35]: 0.4% | Activity [36]: 1.6%

Source: ChEMBL document CHEMBL3861944 (Medchemcomm, 2016)
